Source: patent publication US20030104007A1, “Pseudopterosin compounds of Symbiodinium spp isolated from Pseudopterogorgia elisabethae” (priority 2001, published 2003)

Experiments:
[1] = test system: leukotriene C4 production in zymosan-stimulated murine peritoneal macrophages; assay: Leukotriene C4 production in zymosan-stimulated murine peritoneal macrophages; type: cell-based; details: read-out: IC50, inhibition of leukotriene C4 production
[2] = test system: prostaglandin E2 production in zymosan-stimulated murine peritoneal macrophages; assay: Prostaglandin E2 production in zymosan-stimulated murine peritoneal macrophages; type: cell-based; details: read-out: IC50, inhibition of prostaglandin E2 production
[3] = test system: PMA-induced mouse ear edema; assay: Inhibition of PMA-induced inflammation (edema) of the mouse ear; type: in vivo; details: administered topically
Procedure: A test compound is topically applied in acetone to the inside pinnae of the ears of mice in a solution containing the edema-causing irritant, phorbol 12-myristate 13-acetate (PMA). PMA alone (2 μg/ear) or in combination with the test compound is applied to left ears (5 mice per treatment group) and acetone is applied to all right ears. After 3 hour 20 minute incubation, the mice are euthanized, the ears are removed, and bores are taken and weighed. Edema is measured by subtracting the weight of the right ear (acetone control) from the weight of the left ear (treated). Results are recorded as % decreases (inhibition) or % increase (potentiation) in edema relative to the PMA control group edema. Test compounds are screened at 50 or 25 μg/ear.
This signaling mechanism may be coupled to phagosome formation. The endogenous production of eicosanoids and their role in phagosome formation may be evaluated by using […] as pharmacological probes and analyzing arachidonic acid products by conventional means.

Tetrahymena thermophila = Tetrahymena thermophila phagocytic activity (India ink food vacuole formation); type: cell-based; details: read-out: IC50, inhibition of phagocytic activity
Procedure: In Tetrahymena thermophila, PsA and elisabethadione were potent inhibitors of phagocytic activity with IC50 of 0.4 and 0.1 μM, respectively. A test compound may be assayed as follows. Log-phase Tetrahymena thermophila cultures are grown in 2% proteose peptone, 0.1% glucose at 25° C. A volume comprising 1×10^7 cells are centrifuged at 450 g for 5 minutes. The pellet is washed and resuspended in 3.15 ml of 50 mM TRIS-HCl buffer at pH 7.7. The test compound is prepared at a desired concentration in 0.4 ml volumes. For control samples, 0.4 ml of buffer is used. 0.45 ml of diluted India ink (1:25, v:v) is added to each drug preparation. At t=0, the drug/ink mixture is added to the Tetrahymena cells, and at t=10 min., […] samples of cell suspension are removed and fixed in 10% formaldehyde. At least 100 random cells from each sample are then examined in a light microscope. Phagocytic activity is assessed by calculating the ratio of cells with food vacuoles compared to the cells with no food vacuoles.

Row | Compound | IC50 [1] | IC50 [2] | ED50, reducing PMA-induced mouse ear edema [3] | IC50 (Tetrahymena thermophila)
1 | CC(C)=C[C@H]1C[C@H](C)[C@H]2CC[C@H](C)c3c(O[C@@H]4OC[C@@H](O)[C@H](O)[C@H]4O)c(O)c(C)c1c32 [PsA, Pseudopterosin A] | 1000 nM | 4000 nM | 8 μg/ear | 400 nM
2 | CC(C)=C[C@H]1C[C@H](C)[C@H]2CC[C@H](C)c3c(O)c(O[C@@H]4O[C@@H](C)[C@@H](O)[C@@H](O)[C@@H]4O)c(C)c1c32 [PsE, Pseudopterosin E] | – | – | 38 μg/ear | –
3 | CC(C)=CCC[C@H](C)[C@H]1CC[C@H](C)C2=C1C(=O)C(C)=C(O)C2=O [elisabethadione] | – | – | – | 100 nM
